Measured values as given in patent US9975860B2, “Anti-angiogenic compounds” (UNIVERSITY COLLEGE DUBLIN—NATIONAL UNIVERSITY OF IRELAND, …, priority 2014, dated 2018).
“Also recorded” adds a separate entry of the source.

How the values were obtained:
MMS19 [1] = experiment: qPCR DNA repair gene expression in OE33P: MMS19; assay type: cell-based, human; settings: 10 μM, 24 hours, p<0.01
Protocol: (§1) OE33P radiosensitive oesophageal adenocarcinoma cells and OE33R radioresistant oesophageal adenocarcinoma cells were used to test the effects of the compound 4 on DNA repair gene expression. Cells were maintained in RPMI media supplemented with 10% foetal calf serum, penicillin (100 U/ml) and streptomycin (100 μg/ml). A total of 300,000 cells, in 2 ml media, were seeded per well in 6 well plates and left to incubate for 24 hours. The media was replaced with solutions containing 10 μM of compound 4 or the equivalent volume of DMSO vehicle control. After 24 hours of treatment, RNA was extracted from the cells and converted to cDNA. qPCR was then conducted and expression of MMS19, SMUG1 PARP1 and MLH1 was quantified, […]

MLH1 [2] = experiment: qPCR DNA repair gene expression in OE33R: MLH1; assay type: cell-based, human; settings: 10 μM, 24 hours
Protocol: as §1

[3] = test system: intersegmental vasculature in zebrafish; experiment: Quantification of intersegmental vessel number in zebrafish; assay type: in vivo; settings: 10 μM; zebrafish embryos treated 6 hpf to 48 hpf
Protocol: At 6 hours post fertilisation, 5 embryos per well were placed in 400 μL of embryo medium/0.1% DMSO and incubated with 10 μM compound at 28° C. on a 14 h light/10 h dark cycle. At 48 hpf larvae were manually dechorionated, euthanised, and fixed in 4% PFA at 4° C. overnight before analysis. The larvae were then washed with PBS and transferred to depression slides for observation under epi-fluorescence in an Olympus SZX16 fluorescent microscope. The number of intersegmental vessels was counted and the average number was graphed for each drug.
All experimental protocols were carried out as per example 1 and 2. Briefly, zebrafish larvae were treated with 10 μM of AT-051/41206012 (chemical name 2-[2-(2-methoxyphenyl)ethenyl]pyrazine) purchased from Specs (The Netherlands). At 6 or 48 hours post fertilisation (hpf), 5 embryos per well were placed in 400 μl of Embryo Medium/0.1% DMSO and incubated with 10 μM AT-051/41206012 at 28° C. on a 14 h light/10 h dark cycle. Larvae were treated from 6-48 hpf (intersegmental vessel study) or from 48 to 120 hpf (primary hyaloid vessel study). At the end of the study, larvae were euthanized and fixed in 4% PFA at 4° C. overnight before analysis.
The number of intersegmental vessels was counted and the average number was graphed for each drug. Right lenses were dissected from the larvae and transferred to depression slides for observation and the number of primary hyaloid vessels radiating from the back of the lens (3-4 main branches at 5 dpf in controls and previously described), was counted and the average number was graphed for each drug.

bFGF = experiment: Multiplex ELISA of HMEC media: bFGF; assay type: cell-based, human; settings: compound-treated HMECs, 16 hours
Protocol: Dermal-derived Human Microvascular Endothelial Cells (HMEC) were maintained at 37° C./5% CO2 in MCDB-131 medium (Gibco/cat: 10372) supplemented with 10% FCS, L-Glutamine (Gibco/cat: 25030-032), 1 μl/ml Hydrocortisone (Sigma/cat: H0396), 10 ng/ml EGF (BD Biosciences 354001) and 1% Pen-Strep (Gibco/cat: 151040-148). The wells of a μ-slide angiogenesis plate (IBIDI Cat no: 81506) were coated with a layer of matrigel matrix (BD 356234) which was left to polymerize for 45 minutes at 37° C. HMECs were grown to 80% confluence, washed with DPBS (Invitrogen) and trypsinised using 2 ml TrypLE™ Express (1×) (Invitrogen). Cells were centrifuged following flask detachment at 1200 rpm for 4 minutes. The cell pellet was resuspended in 3 ml full media and a cell count was performed using a haemocytometer. 7.5×10^3 cells were pipetted into each matrigel coated well of the μ-slide angiogenesis plate and treated with either 0.1% DMSO or 1, 3.16 or 10 μM compound 4 or compound 18. The slide was kept at 37° C./5% CO2 during cell tube formation. After 16 hours, 50 μl of media was removed from each of the Ibidi wells and 25 μl of the media was run in each well of a Meso Scale Discovery (MD, USA) custom multiplex ELISA containing the following analytes: Ang-1, Ang-2, VEGF, bFGF, PAI-1, sICAM and sVCAM. The ELISA was run as per manufacturer's instructions.

mouse aortic ring = experiment: Ex vivo mouse aortic ring assay (sprout formation); settings: 10 μM; C57/BL6 mouse aortic rings in matrigel; vs 0.1% DMSO; hydrochloride
Protocol: Aortae from sex matched C57/BL6 littermates were cleansed of adipose tissue, cut into 2 mm rings and immersed in matrigel. Aortic rings (6 per experiment) were treated with 0.1% DMSO (vehicle control/VC) or with 10 μM of Compound 4, Compound 12, Compound 15 or Compound 20. Sprouts from the perimeter of the aortic ring were counted and quantified as percentage of vehicle control (VC).

MLH1 [4] = experiment: qPCR DNA repair gene expression in OE33P: MLH1; assay type: cell-based, human; settings: 10 μM, 24 hours, p<0.05
Protocol: as §1

SMUG1 [5] = experiment: qPCR DNA repair gene expression in OE33R: SMUG1; assay type: cell-based, human; settings: 10 μM, 24 hours
Protocol: as §1

PARP1 = experiment: qPCR DNA repair gene expression in OE33P: PARP1; assay type: cell-based, human; settings: 10 μM, 24 hours
Protocol: as §1

MMS19 [6] = experiment: qPCR DNA repair gene expression in OE33R: MMS19; assay type: cell-based, human; settings: 10 μM, 24 hours
Protocol: as §1

SMUG1 [7] = experiment: qPCR DNA repair gene expression in OE33P: SMUG1; assay type: cell-based, human; settings: 10 μM, 24 hours
Protocol: as §1

[8] = test system: OE33P radiosensitive oesophageal adenocarcinoma cells; experiment: Seahorse OCR (oxidative phosphorylation) in OE33P; assay type: cell-based, human; settings: 10 μM, 24 hours
Protocol: OE33P radiosensitive and OE33R radioresistant oesophageal adenocarcinoma cells were used to test the effects of the compound 4 on oxidative phosphorylation. Cells were maintained in RPMI media supplemented with 10% foetal calf serum, penicillin (100 U/ml) and streptomycin (100 μg/ml). A total of 11,000 OE33P cells and 13,000 OE33R cells, in 100 μl media, were seeded per well in 24 well plates and left to incubate for 24 hours, with an additional 150 μl media added after 5 hours. The media was replaced with solutions containing 10 μM of compound 4 or the equivalent volume of DMSO vehicle control. After 24 hours of treatment, media was replaced with modified DMEM supplemented with 0.5 mM glucose. Rates of oxidative phosphorylation were determined using Seahorse Biosciences metabolism technology. The media was disposed and the cells washed with PBS. The cells were fixed with 1% glutaraldehyde for 15 minutes and then stained with crystal violet for 30 minutes. The plates were blotted and dried overnight. The cells were resuspended with 1% TritonX-100 and shaken for 15 minutes. The absorbance was read on a spectrophotometer at 595 nm Rates of oxidative phosphorylation were then normalised to cell number.

| SMILES | expression of MMS19 (qPCR) (MMS19 [1]) | expression of MLH1 (qPCR) (MLH1 [2]) | inhibition of developmental angiogenesis of intersegmental vessels (number of intersegmental vessels) [3] | expression of bFGF (bFGF) | angiogenesis (sprout formation) in aortic rings (mouse aortic ring) | expression of MLH1 (qPCR) (MLH1 [4]) | expression of SMUG1 (qPCR) (SMUG1 [5]) | expression of PARP1 (qPCR) (PARP1) | expression of MMS19 (qPCR) (MMS19 [6]) | expression of SMUG1 (qPCR) (SMUG1 [7]) | oxygen consumption rate (OCR), a measure of oxidative phosphorylation [8] |
| --- | --- | --- | --- | --- | --- | --- | --- | --- | --- | --- | --- |
| Cl.Oc1ccccc1/C=C/c1cnccn1 [Compound 4, (E)-2-[2-(Pyrazin-2-yl)vinyl]phenol hydrochloride] | significantly reduces the expression of MMS19 | not significantly different to control | inhibit developmental angiogenesis of zebrafish intersegmental vessels in a statistically significant manner | not significantly different to control-treated HMECs | block angiogenesis (sprout formation); also recorded: inhibit the formation of sprouts in a statistically significant manner | significantly reduces | not significantly different to control | not significantly different to control | not significantly different to control | not significantly different to control | does not significantly reduce oxygen consumption rate |
| Oc1ccccc1C#Cc1cnccn1 [Compound 18, 2-[2-(Pyrazin-2-yl)ethynyl]phenol] |  |  | inhibit developmental angiogenesis of zebrafish intersegmental vessels in a statistically significant manner | not significantly different to control-treated HMECs |  |  |  |  |  |  |  |
